One compound from patent US20040028749A1, “Treating inflammation and associated complications” (priority 2000, published 2004) can be followed below.

The target in the test is MPO (Homo sapiens, UniProt P05164). The test is described as follows: Stopped-flow kinetics of NO with MPO. The class given is biochemical. Details: MPO was initially purified from detergent extracts of human leukocytes; from tissue; host or cells: human leukocytes (detergent extracts). As for the experimental part:
[…] EPO was isolated from porcine whole blood obtained fresh at the slaughterhouse as described by Jorg et al. (1982) Biochim Biophys Acta 701:185-191. EPO was assayed by guaiacol oxidation (see Klebanoff et al. (1984) Methods Enzymol. 105:399-403). […] The concentration of the MPO dimer was calculated as half the indicated concentration of heme-like chromophore. Bovine LPO was obtained from Worthington Biochemistry Corporation (Lakewood, N.J.) and used without further purification.
To examine the kinetics of interaction between NO and MPO Compounds I and II, stopped-flow spectroscopy was used. The kinetics of Compound II formation and decay in the absence and presence of different NO concentrations were performed using a dual syringe stopped-flow instrument obtained from Hi-Tech Ltd (model SF-51). Measurements were carried out under anaerobic atmosphere, at 25° C. and monitored at 455 nm (an isosbestic point of Compound I and MPO ground state) following rapid mixing of equal volumes of an H202-containing buffer solution and an MPO solution that contained different NO concentrations. The time course of absorbance change was fit to either single or double exponential functions as indicated. The rate constants for the formation (kon) and decay (koff) of the MPO-Fe(III)-NO complex in the presence of plasma levels of the alternative substrate Cl^− (100 mM) were determined by monitoring absorbance change at 430 nm at 10° C. […]
Rapid kinetic studies were initially performed under Cl^− free conditions using 2 co-substrates, a fixed (low) level of H2O2 and variable levels of NO. […] The subsequent decrease in absorbance at 455 nm observed was also fit to a single exponential function with a rate constant of […] and was attributed to the decay of compound II.
(An anaerobic solution containing sodium phosphate buffer (200 mM, pH 7.0) supplemented with H2O2 (20 μM) was rapidly mixed with an equal volume of buffer containing 0.86 μM of MPO-Fe(III) and differing concentrations of NO at 25° C.) NO was readily used as a one e^− substrate by Compound I, as indicated by the rapid buildup of MPO Compound II. […]
In a parallel series of experiments, the influence of NO on the kinetics of MPO Compound II buildup, duration, and decay during steady-state catalysis in the presence of plasma levels of the competing substrate Cl^− was examined. Reactions were again performed under anaerobic conditions and the absorbance change at 455 nm monitored following rapid mixing of enzyme and various concentrations of NO (2.5, 12.5, 25 and 50 μM final) in the presence of H202 (10 μM final) and Cl^− (100 mM final). Anaerobic spectra of MPO-Fe(III) were recorded at 25° C. in septum-sealed quartz cuvettes that were equipped with a quick-fit joint for attachment to a vacuum system. […]

Sequence of MPO (P05164 279-745 limits assumed): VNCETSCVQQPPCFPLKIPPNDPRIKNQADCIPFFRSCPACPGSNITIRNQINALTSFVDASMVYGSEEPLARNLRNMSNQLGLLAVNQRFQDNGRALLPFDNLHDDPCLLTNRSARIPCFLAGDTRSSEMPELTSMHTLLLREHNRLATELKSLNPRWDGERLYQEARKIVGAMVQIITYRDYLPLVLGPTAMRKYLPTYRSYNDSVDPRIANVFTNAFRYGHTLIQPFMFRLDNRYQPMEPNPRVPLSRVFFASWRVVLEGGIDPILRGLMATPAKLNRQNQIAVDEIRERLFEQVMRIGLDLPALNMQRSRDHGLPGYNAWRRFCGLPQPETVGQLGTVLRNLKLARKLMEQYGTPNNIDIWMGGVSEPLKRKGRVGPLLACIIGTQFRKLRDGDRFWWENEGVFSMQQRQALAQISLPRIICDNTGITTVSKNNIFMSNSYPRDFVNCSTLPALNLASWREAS
Sequence of MPO (P05164 165-273 limits assumed): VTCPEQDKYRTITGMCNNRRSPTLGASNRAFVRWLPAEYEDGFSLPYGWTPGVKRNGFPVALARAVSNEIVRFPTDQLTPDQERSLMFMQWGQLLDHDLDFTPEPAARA

The term koff denotes the first-order rate constant of dissociation. For orientation: kon means the rate constant with which the complex forms. With `[N]=O` [NO, nitric oxide], the “enhancement of rate of MPO Compound II accumulation” value (10 μM H2O2, Cl^− free, 25° C.) is about 20 fold. Also, the koff (100 mM Cl^−, 11° C., read-out: koff for NO binding to MPO-Fe(III)) was found to be 22.3 s⁻¹. Moreover, for the setting “100 mM Cl^−, 11° C., read-out: kon for NO binding to MPO-Fe(III)”, the kon is 150000 M⁻¹ s⁻¹. Moreover, the “second order rate constant of MPO Compound II decay” value (Cl^− free, 25° C.) is given as 8×10^3 M^−1S^−1.
